Results published in article PMC9599461, “Stereoselectivity in the Membrane Transport of Phenylethylamine Derivatives by Human Monoamine Transporters and Organic Cation Transporters 1, 2, and 3” (Biomolecules, 2022).
Where two headings read alike, the source gives them in different places.

Key:
[1] = target: T1, OCT1 (Homo sapiens, UniProt O15245); assay: Stereoselective uptake into OCT1-overexpressing HEK293 cells; settings: for Vmax ± SEM: net uptake; for Clint ± SEM: quotient of vmax over Km;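 for all read-outs here: enantiomers quantified inside cells by chiral HPLC-MS/MS, uptake normalized to total protein from bicinchoninic acid assay, substrates applied in HBSS+ buffer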
T1 sequence (O15245 1-554): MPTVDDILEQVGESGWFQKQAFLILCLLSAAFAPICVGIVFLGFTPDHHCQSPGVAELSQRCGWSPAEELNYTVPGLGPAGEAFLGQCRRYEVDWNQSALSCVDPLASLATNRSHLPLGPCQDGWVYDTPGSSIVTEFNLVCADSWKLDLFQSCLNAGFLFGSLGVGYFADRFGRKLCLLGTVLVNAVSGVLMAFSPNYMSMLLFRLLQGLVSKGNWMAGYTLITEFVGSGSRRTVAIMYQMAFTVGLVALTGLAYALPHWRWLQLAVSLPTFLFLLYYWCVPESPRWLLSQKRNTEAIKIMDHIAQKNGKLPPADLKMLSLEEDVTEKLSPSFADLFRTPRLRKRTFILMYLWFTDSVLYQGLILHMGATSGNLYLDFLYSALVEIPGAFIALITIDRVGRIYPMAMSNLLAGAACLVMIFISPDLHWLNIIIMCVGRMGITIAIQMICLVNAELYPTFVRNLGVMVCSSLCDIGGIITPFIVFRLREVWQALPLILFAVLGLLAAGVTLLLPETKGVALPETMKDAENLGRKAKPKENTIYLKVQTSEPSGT

[2] = target: T2, SERT (Homo sapiens, UniProt P31645);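 note: uptake into HEK293 cells stably expressing human SERT over 2 min, enantiomers measured in cell lysate by chiral HPLC-MS/MS, normalized to total protein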
T2 sequence (P31645 whole entry): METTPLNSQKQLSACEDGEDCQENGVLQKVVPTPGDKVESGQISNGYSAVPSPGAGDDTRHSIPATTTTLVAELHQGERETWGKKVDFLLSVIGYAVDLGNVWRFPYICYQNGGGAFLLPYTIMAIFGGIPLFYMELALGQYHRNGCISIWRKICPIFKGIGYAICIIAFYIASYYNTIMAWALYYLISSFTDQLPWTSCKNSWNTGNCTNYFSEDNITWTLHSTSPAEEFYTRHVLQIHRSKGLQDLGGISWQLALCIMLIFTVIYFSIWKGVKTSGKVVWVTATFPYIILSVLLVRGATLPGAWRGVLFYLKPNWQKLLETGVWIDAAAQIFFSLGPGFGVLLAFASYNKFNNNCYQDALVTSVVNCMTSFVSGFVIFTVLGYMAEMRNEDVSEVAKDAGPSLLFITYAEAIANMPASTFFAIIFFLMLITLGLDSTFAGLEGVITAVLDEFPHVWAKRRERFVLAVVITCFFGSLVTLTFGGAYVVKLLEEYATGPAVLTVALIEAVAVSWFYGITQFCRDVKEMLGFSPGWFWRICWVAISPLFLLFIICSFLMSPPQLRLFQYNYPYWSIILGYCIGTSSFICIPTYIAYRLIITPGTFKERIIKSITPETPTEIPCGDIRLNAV

[3] = target: T3, OCT2 (Homo sapiens, UniProt O15244); assay: Stereoselective uptake into OCT2 (wild-type)-overexpressing HEK293 cells; settings: for Vmax ± SEM: net uptake; for Clint ± SEM: OCT2, quotient of vmax over Km
T3 sequence (O15244 1-555 S270A): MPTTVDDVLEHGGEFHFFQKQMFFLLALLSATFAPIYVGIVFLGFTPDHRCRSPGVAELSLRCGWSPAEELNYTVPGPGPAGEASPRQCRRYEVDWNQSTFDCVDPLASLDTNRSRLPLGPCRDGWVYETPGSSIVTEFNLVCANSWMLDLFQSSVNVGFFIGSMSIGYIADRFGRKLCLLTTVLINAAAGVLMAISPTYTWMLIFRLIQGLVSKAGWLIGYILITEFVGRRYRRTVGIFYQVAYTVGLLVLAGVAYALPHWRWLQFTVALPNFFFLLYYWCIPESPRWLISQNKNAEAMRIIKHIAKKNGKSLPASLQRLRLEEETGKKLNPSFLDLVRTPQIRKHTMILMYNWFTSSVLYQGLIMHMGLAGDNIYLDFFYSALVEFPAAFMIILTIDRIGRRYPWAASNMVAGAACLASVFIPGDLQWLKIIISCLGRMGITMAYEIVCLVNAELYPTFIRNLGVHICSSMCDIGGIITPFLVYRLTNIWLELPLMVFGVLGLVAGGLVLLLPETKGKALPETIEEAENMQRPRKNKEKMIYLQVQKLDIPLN
Procedure: (§1) All transport experiments were carried out in HEK293 cells stably overexpressing human MATs or OCTs. […] All cells were regularly cultivated in DMEM supplemented with 10% (v/v) FCS, penicillin (100 U/mL) and streptomycin (100 μg/mL)and kept in culture for no longer than 30 passages.
(§2) For the uptake experiments, 300,000 cells were plated in poly-D-lysine precoated 24-well plates 48 h ahead of the transport experiment. On the day of experiment, cells were initially washed once with 37 °C pre-warmed HBSS+ (Hanks buffered salt solution supplemented with 10 mM HEPES) and subsequently incubated with the substrates dissolved in pre-warmed HBSS+ for exactly two minutes. Incubation was stopped by adding ice-cold HBSS+ followed by two washing steps. After this, cells were lysed with 80% acetonitrile containing 10 ng/mL milnacipran as internal standard for high-performance liquid chromatography coupled to tandem mass spectrometry (HPLC-MS/MS) analysis. For every experiment, two additional wells per cell line were lysed using RIPA buffer for protein quantification. Total protein was quantified using the bicinchoninic acid assay [42]. This was later used for normalization of the uptake data.
(§3) Intracellularly accumulated test substances were quantified by HPLC-MS/MS analysis using a Shimadzu Nexera HPLC system with a SIL-30AC autosampler, a CTO-20AC column oven, a LC-30AD pump, and a CBM-20A controller (Shimadzu, Kyoto, Japan). Stereoselective chromatography was carried out on a [sequence] CBH HPLC column (100 × 3 mm inner dimension with 5 μM particle size; Sigma-Aldrich, Darmstadt, Germany) with a corresponding 10 × 3 mm guard column. Reversed phased chromatography was carried out using an ammonium acetate (NH4Ac) buffered aqueous mobile phase with isopropyl alcohol (IPA) as organic solvent. […] The order of elution of the enantiomers was obtained from available reference literature [43] or by applying enantiopure reference compounds to the chiral HPLC. […] However, in every other case where the order of elution was available, the (R)-enantiomer eluted first. Given the structural similarity of the investigated substances and the fact that separation was performed on the same column with almost identical mobile phases, we assume that this order of elution for our compound set is always the (R)- before the (S)-enantiomer.
(§4) Detection was performed with an API 4000 tandem mass spectrometer (AB SCIEX, Darmstadt, Germany) operating in multiple-reaction-monitoring mode. Quantification was performed using the Analyst 1.6.2 software (AB SCIEX, Darmstadt, Germany) and quantified by comparison to standard curves with known concentrations.
(§5) All uptake data were normalized to protein content to account for variation in the number of seeded sells. Transporter-mediated net uptake was calculated by subtracting uptake into empty vector-transfected control cells from uptake into transporter-transfected cells. Kinetic parameters were then determined after non-linear regression following the Michaelis–Menten equation (v = vmax × [S]/(Km + [S])) using GraphPad Prism (Version 5.01 for Windows, GraphPad Software, La Jolla, CA, USA). Vmax refers to the maximum transport velocity and Km is defined as the substance concentration required to reach half of vmax. The intrinsic clearance Clint was calculated as the quotient of vmax over Km.
(§6) HEK293 cells stably overexpressing wild-type or mutant OCT2 were incubated with 100 μM racemic substance for two minutes.

[4] = target: T4, OCT2 (Homo sapiens, UniProt O15244, S270A); assay: as above; settings: OCT2, ratio between enantiomers
T4 sequence (O15244 1-555 S270A): T3 sequence (O15244 1-555 S270A)
Procedure: as §1, §2, §3, §4, §5, §6

[5] = target: NET (Homo sapiens, UniProt P23975); assay: Stereoselective uptake into NET-overexpressing HEK293 cells;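 note: intracellular enantiomers quantified in cell lysates by chiral HPLC-MS/MS after a 2 min substrate incubation, with uptake normalized to total cellular protein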
NET, sequence (P23975 whole entry): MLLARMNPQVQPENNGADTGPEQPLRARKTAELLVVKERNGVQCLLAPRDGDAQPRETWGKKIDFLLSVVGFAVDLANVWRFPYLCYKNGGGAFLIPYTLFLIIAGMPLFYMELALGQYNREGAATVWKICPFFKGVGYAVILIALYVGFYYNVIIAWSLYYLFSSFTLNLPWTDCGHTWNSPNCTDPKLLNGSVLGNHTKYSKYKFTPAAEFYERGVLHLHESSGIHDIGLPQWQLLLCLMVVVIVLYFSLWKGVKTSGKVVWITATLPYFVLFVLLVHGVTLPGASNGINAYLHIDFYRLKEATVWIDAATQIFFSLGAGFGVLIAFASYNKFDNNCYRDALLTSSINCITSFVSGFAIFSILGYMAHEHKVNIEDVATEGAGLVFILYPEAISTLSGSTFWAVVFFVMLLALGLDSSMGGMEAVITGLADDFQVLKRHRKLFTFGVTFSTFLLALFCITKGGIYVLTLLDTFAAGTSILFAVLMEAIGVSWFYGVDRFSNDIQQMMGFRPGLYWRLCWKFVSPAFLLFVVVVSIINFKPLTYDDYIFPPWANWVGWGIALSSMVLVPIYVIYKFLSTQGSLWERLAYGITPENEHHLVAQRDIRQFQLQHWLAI
Procedure: as §1, §2
(§7) Intracellularly accumulated test substances were quantified by HPLC-MS/MS analysis using a Shimadzu Nexera HPLC system with a SIL-30AC autosampler, a CTO-20AC column oven, a LC-30AD pump, and a CBM-20A controller (Shimadzu, Kyoto, Japan). Stereoselective chromatography was carried out on a [sequence] CBH HPLC column (100 × 3 mm inner dimension with 5 μM particle size; Sigma-Aldrich, Darmstadt, Germany) with a corresponding 10 × 3 mm guard column. Reversed phased chromatography was carried out using an ammonium acetate (NH4Ac) buffered aqueous mobile phase with isopropyl alcohol (IPA) as organic solvent. […] The order of elution of the enantiomers was obtained from available reference literature [43] or by applying enantiopure reference compounds to the chiral HPLC. […] Given the structural similarity of the investigated substances and the fact that separation was performed on the same column with almost identical mobile phases, we assume that this order of elution for our compound set is always the (R)- before the (S)-enantiomer.
as §4, §5

[6] = system: OCT2 A270S variant; assay: Stereoselective uptake into OCT2 A270S variant-overexpressing HEK293 cells; settings: 100 μM racemic substance, two minutes; for Transporter selectivity: OCT2 wild-type versus A270S;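 for all read-outs here: uptake into HEK293 cells stably overexpressing human OCT2 variants, intracellular enantiomers quantified by chiral HPLC-MS/MS and normalized to total protein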
[7] = target: T5, OCT3 (Homo sapiens, UniProt O75751); assay: Stereoselective uptake into OCT3-overexpressing HEK293 cells; settings: for Clint ± SEM: quotient of vmax over Km; for Stereoselectivity Vmax: given as for (R) or for 1;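 for all read-outs here: intracellular accumulation in HEK293 cells measured by chiral HPLC-MS/MS after a 2 min substrate exposure at 37 °C, uptake normalized to total protein (bicinchoninic acid assay)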
T5 sequence (O75751 1-556): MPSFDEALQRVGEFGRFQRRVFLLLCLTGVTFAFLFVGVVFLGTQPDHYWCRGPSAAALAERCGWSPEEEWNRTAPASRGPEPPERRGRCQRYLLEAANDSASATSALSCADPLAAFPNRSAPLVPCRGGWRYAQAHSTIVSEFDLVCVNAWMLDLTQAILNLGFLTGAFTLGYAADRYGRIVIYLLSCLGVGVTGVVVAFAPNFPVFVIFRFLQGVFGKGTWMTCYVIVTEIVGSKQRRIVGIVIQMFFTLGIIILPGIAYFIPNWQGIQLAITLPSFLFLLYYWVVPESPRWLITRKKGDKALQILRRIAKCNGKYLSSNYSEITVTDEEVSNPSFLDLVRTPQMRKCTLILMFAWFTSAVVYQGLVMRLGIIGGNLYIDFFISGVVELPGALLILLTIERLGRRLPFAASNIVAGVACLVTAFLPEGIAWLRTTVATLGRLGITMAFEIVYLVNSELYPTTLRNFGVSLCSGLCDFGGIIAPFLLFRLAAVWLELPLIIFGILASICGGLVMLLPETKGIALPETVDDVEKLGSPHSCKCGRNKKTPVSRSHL

[8] = target: DAT (Homo sapiens, UniProt Q01959); assay: Stereoselective uptake into DAT-overexpressing HEK293 cells; settings: DAT; result in words;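 note: intracellular accumulation measured by chiral HPLC-MS/MS in stably transfected HEK293 cells, normalized to total protein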
DAT, sequence (Q01959 whole entry): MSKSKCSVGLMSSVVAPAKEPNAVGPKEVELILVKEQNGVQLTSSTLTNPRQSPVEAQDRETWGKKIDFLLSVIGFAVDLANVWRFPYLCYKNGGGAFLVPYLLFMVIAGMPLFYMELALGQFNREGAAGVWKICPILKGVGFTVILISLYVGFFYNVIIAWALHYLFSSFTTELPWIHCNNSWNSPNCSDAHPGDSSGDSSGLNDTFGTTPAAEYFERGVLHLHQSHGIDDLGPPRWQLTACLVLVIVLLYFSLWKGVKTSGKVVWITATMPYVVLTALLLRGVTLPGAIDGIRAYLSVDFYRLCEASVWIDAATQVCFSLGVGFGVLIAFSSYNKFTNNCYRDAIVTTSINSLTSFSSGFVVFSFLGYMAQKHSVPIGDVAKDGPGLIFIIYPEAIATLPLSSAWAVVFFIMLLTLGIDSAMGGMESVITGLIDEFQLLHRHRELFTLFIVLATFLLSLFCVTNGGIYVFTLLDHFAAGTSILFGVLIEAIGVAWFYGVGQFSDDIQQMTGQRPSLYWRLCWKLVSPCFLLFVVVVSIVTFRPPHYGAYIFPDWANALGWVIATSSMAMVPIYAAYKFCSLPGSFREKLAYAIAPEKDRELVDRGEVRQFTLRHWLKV
Procedure: as §1, §2, §7, §4, §5

[9] = target: T2, SERT; assay: Stereoselective uptake into SERT-overexpressing HEK293 cells; settings: for Clint ± SEM: SERT, quotient of vmax over Km;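 for all read-outs here: uptake into HEK293 cells stably expressing human SERT over 2 min, enantiomers measured in cell lysate by chiral HPLC-MS/MS, normalized to total protein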
[10] = HEK293 cells overexpressing human OCT1, racemic substrate, two minutes
[11] = HEK293 cells overexpressing human OCT2, racemic substrate, two minutes
[12] = OCT3, ratio between enantiomers
[13] = NET, ratio between enantiomers, given as for (S) or for 2

CNCC(O)c1ccc(O)c(OC)c1 (single isomer, unassigned) [Metanephrine-2, Metanephrine]
Vmax ± SEM [1, 10]: 1018 pmol × mg Protein^−1 × min^−1
Clint ± SEM ([1]; OCT1): 6.97 mL × g Protein^−1 × min^−1
Stereoselectivity Vmax ([1]; OCT1, ratio between enantiomers, given as for (R) or for 1): 1.06 fold
Stereoselectivity Km ([1]; OCT1, ratio between enantiomers, given as for (S) or for 2 (second-eluting)): 1.09 fold
Stereoselectivity ClInt ([1]; human, 2 min): 1.16 fold
Stereoselectivity ClInt ([2]; human): 1.01 fold
Vmax ± SEM [3, 11]: 528 pmol × mg Protein^−1 × min^−1
Clint ± SEM [3]: 7.75 mL × g Protein^−1 × min^−1
Stereoselectivity ClInt ([4]; given as for (R) or for 1): 2.66 fold
Stereoselectivity Vmax ([4]; given as for (R) or for 1): 2.13 fold
Stereoselectivity Km ([4]; given as for (S) or for 2 (second-eluting)): 1.25 fold
Saturable net uptake ([5]; NET, result in words): No saturable net uptake
Transporter selectivity ([6]; given as for A270S, listed as (S)-Metanephrine): 1.47 fold
Clint ± SEM ([7]; OCT3): 26.0 mL × g Protein^−1 × min^−1
Stereoselectivity Vmax [7, 12]: 1.19 fold
Stereoselectivity ClInt ([7]; OCT3, ratio between enantiomers, given as for (R) or for 1 (also 1.00-fold for 1/2)): 1.00 fold
Stereoselectivity Km ([7]; OCT3, ratio between enantiomers, given as for (R) or for 1 (first-eluting)): 1.19 fold
Saturable net uptake [8]: No saturable net uptake
Stereoselectivity Km [9]: 1.09 fold
Stereoselectivity Vmax [9]: 1.08 fold
Clint ± SEM [9]: 0.57 mL × g Protein^−1 × min^−1

C[C@@H]1NCCc2cc(O)c(O)cc21 [Salsolinol-1, Salsolinol]
Vmax ± SEM [1, 10]: 1450 pmol × mg Protein^−1 × min^−1
Clint ± SEM ([1]; OCT1): 10.9 mL × g Protein^−1 × min^−1
Stereoselectivity ClInt ([1]; OCT1, ratio between enantiomers, given as for (R) or for 1 (also 1.00-fold for 1/2)): 1.00 fold
Km ([1]; read-out: Km ± SEM, HEK293 cells overexpressing human OCT1, racemic substrate, two minutes, net uptake minus empty vector control): 133 µM
Stereoselectivity ClInt [2]: 2.48 fold
Vmax ± SEM [3, 11]: 9083 pmol × mg Protein^−1 × min^−1
Clint ± SEM [3]: 40.9 mL × g Protein^−1 × min^−1
Km ([3]; read-out: Km ± SEM, HEK293 cells overexpressing human OCT2, racemic substrate, two minutes, net uptake minus empty vector control): 222 µM
Stereoselectivity Km ([4]; given as for (R) or for 1 (first-eluting)): 1.04 fold
Stereoselectivity ClInt ([4]; given as for (S) or for 2): 1.05 fold
Stereoselectivity Vmax ([4]; given as for (S) or for 2): 1.01 fold
Vmax ± SEM ([5]; HEK293 cells overexpressing human NET, racemic substrate, two minutes, net uptake): 112 pmol × mg Protein^−1 × min^−1
Clint ± SEM ([5]; NET, quotient of vmax over Km): 1.24 mL × g Protein^−1 × min^−1
Stereoselectivity ClInt [5, 13]: 1.19 fold
Stereoselectivity Vmax [5, 13]: 1.35 fold
Stereoselectivity Km ([5]; NET, ratio between enantiomers, given as for (S) or for 2 (second-eluting)): 1.13 fold
Km ([5]; read-out: Km ± SEM, HEK293 cells overexpressing human NET, racemic substrate, two minutes, net uptake minus empty vector control): 90.1 µM
Net uptake by A270S variant in comparison to the wild-type [6]: 66%
Transporter selectivity ([6]; given as for WT, listed as (R)-Salsolinol): 1.50 fold
Stereoselectivity ClInt [7]: 1.21 fold
Vmax ± SEM ([7]; HEK293 cells overexpressing human OCT3, racemic substrate, two minutes, net uptake): 705 pmol × mg Protein^−1 × min^−1
Clint ± SEM ([7]; OCT3): 3.80 mL × g Protein^−1 × min^−1
Stereoselectivity Vmax [7, 12]: 1.01 fold
Stereoselectivity Km ([7]; OCT3, ratio between enantiomers, given as for (S) or for 2 (second-eluting)): 1.20 fold
Km ([7]; read-out: Km ± SEM, HEK293 cells overexpressing human OCT3, racemic substrate, two minutes, net uptake minus empty vector control): 186 µM
Saturable net uptake [8]: No saturable net uptake
Stereoselectivity Km [9]: 1.85 fold
Stereoselectivity Vmax [9]: 1.34 fold
Vmax ± SEM ([9]; HEK293 cells overexpressing human SERT, racemic substrate, two minutes, net uptake): 229 pmol × mg Protein^−1 × min^−1
Clint ± SEM [9]: 1.77 mL × g Protein^−1 × min^−1
Km ([9]; read-out: Km ± SEM, HEK293 cells overexpressing human SERT, racemic substrate, two minutes, net uptake minus empty vector control): 129 µM
